Reference: patent publication US11992011B2, “Compounds for controlling plant pathogens” (VIB VZW, priority 2017, dated 2024)

Tests used:
Meloidogyne incognita = Meloidogyne incognita infection in tomato cv. Moneymaker (Example 7); type: in vivo
Procedure: (§1) Tomato seeds, cv. Moneymaker (Vreeken's Zaden, Dordrecht, the Netherlands) were sown on autoclaved potting soil coveed with polyethylene film and placed at 24° C. for eight days. Seedlings were then transferred to individual SAP-filled pots and placed in a growth chamber at 24° C. Plants were watered three times per week with 25 ml of quarter-strength Hoagland solution for the first two weeks and half-strength thereafter.
M. incognita was extracted from infected tomato plants (cv. Moneymaker) roots grown in potting soil at 24° C. Nematodes were collected, counted and inoculated using the same procedure described for M. graminicola above.
(§2) Unless otherwise mentioned, all chemicals for nematode experiments were applied as a foliar spray consisting of the target compound at a concentration of 300 μM together with 0.1% (v/v) Tween 20 surfactant (Calbiochem) in distilled water. Again unless otherwise mentioned, all treatments for the nematode experiments were carried out three times: one and eight days before pathogen inoculation and seven days after pathogen inoculation. In all cases, plants were sprayed until run-off with an atomizer.
Infection experiments with M. incognita were performed in the same manner as those with M. graminicola, except that plants were harvested 31 days after inoculation instead of 14 days. At this point, the plants were phenotyped by measuring the root length with a ruler and in some experiments by measuring leaf area using the EasyLeafArea software (Easlon and Bloom, 2014) and by determining shoot dry mass after 72 hours of drying in an oven at 70° C. Galls were stained and counted as described above.
Additionally, a possible dose response effect was investigated by applying PA at three concentrations: 100, 400 and 700 μM.

[1] = tested on: Fusarium oxysporum (isolate Foc26); assay: Onion seedling emergence with PA seed coating, Fusarium oxysporum (Example 12); type: in vivo; conditions: onion seeds with 300 μM PA coating vs mock coating
Procedure: Seed coatings were applied by dipping seeds in a coating solution containing 20 g/I high viscosity carboxymethylcellulose (Sigma-Aldrich, Saint Louis, USA) in distilled water as well as 300 μM of the target compound. Seeds were then dried overnight at room temperature.
Onion seeds were coated with a 300 μM PA solution as outlined in the chemical treatments section. F. oxysporum (isolate Foc26), F. solani (isolate Fso18) and F. proliferatum (isolate Fpr18) were originally extracted from Vietnamese onion fields. Inoculum was obtained as described in the fungal culture section. The inoculum was diluted to a concentration of 1.0×10^7 spores per ml with sterile PBS buffer. The coated seeds were then soaked in the spore solution for one hour. To avoid excessive PA leaching from the PA coating, 100 μM of PA was added to the spore solution.
After soaking in the PA solution, seeds were left to dry for thirty minutes. Twenty seeds were then sowed per pot in potting soil; three pots were used per treatment and per fungal isolate (for a total of 60 seeds per treatment-isolate combination). The pots were covered in cling film and left on a window sill at room temperature. After eight and ten days, the number of germinated seedlings per pot was counted.
Germination experiments were analyzed by fitting a three-parameter log-logistic model as implemented in the R drc package.

[2] = tested on: Pseudomonas syringae DC3000; assay: Pseudomonas syringae toxicity experiment in liquid culture (Example 21); type: cell-based; conditions: 100 μM, twenty-four hours of continuous exposure
Procedure: A glycerol stock of P. syringae pv. DC3000 kept at−80° C. was spotted on petri dishes containing King's B agar amended with 75 μg/ml rifampicine (Duchefa Biochemie, Haarlem, the Netherlands). The plates were incubated in the dark at 28° C. for one week. At this time point, glass test tubes containing 5 ml of liquid King's B each (without rifampicin) were inoculated with cells from the plates and placed on an orbital shaker at 200 rpm for 24 hours at 28° C. 100 μl of this liquid inoculum was transferred to fresh glass test tubes containing 5 ml of liquid King's B each (without rifampicin) amended either with 100 μM of PA or a corresponding control, which were placed on an orbital shaker at 200 rpm for 24 hours at 28° C. At this time point, the cells were diluted ten-fold with liquid King's B medium and the OD600 of the resulting suspension was determined using a spectrophotometer (BioRad SmartSpec Plus), with sterile King's B as a blanc.
Prior to inoculation, the effect of piperonylic acid on Pseudomonas syringae DC3000 itself was also verified by growing the bacteria on liquid culture amended with piperonylic acid or a corresponding control and measuring the OD600 (as described in the materials and methods section).

tomato = assay: Phytotoxicity of foliar spray in uninfected tomato (Example 1); type: in vivo, Solanum lycopersicum; conditions: 500 μM foliar spray, 8 plants per treatment
Procedure: as §1, §2
Short-term phytotoxicity experiments (Example 1) were analyzed using non-parametric methods. For each variable, overall significance was determined using the Kruskal-Wallis test (Kruskal and Wallis, 1952), followed by a posthoc Conover-Iman test (Conover and Iman, 1981) with Hommel multiplicity correction (Hommel, 1988) if the Kruskal-Wallis test was significant. When only two groups were present, the Wilcoxon-Mann-Whitney test was used (Mann and Whitney, 1947).
To test whether C4H inhibitors induce phytotoxic effects in crops, uninfected tomato, wheat and carrot were treated with piperonylic acid (PA), 4-iodobenzoic acid (4-IBA) and piperic acid (PIA) at a concentration of 500 μM through foliar application. At harvest, leaf area (or shoot length in the case of wheat) and primary root length were recorded. The BBCH developmental stage (Lancashire et al., 1991), a measure of developmental retardation, was used to test for effects on development. Finally, the presence of visible signs of phytotoxicity such as chlorosis, discoloration or necrosis was recorded.

In the case of `O=C(O)c1ccc2c(c1)OCO2` [PA, Piperonylic acid], the “negative effects on growth or development of the tomato plants” value (Meloidogyne incognita; 100, 400 and 700 μM foliar spray) is reported as “no negative effects on growth or development”, the “Percent difference of mean number of galls per root system, PA100 vs. PA400” value (Meloidogyne incognita; tomato, 100 μM compared with 400 μM) is reported as −9% and the “Percent difference of mean number of galls per root system, PA100 vs. PA700” value (Meloidogyne incognita; tomato, 100 μM compared with 700 μM) is reported as −2%. For the same molecule, the “Percent difference of mean number of galls per root system, PA400 vs. PA700” value (Meloidogyne incognita; tomato, 400 μM compared with 700 μM) was “+11%”, the “Percent difference of mean number of galls per root system, PA100 vs. CON” value (Meloidogyne incognita; tomato, foliar spray 100 μM) was −54% and the “Percent difference of mean number of galls per root system, PA400 vs. CON” value (Meloidogyne incognita; tomato, foliar spray 400 μM) was −50%. For the same molecule, the “Percent difference of mean number of galls per root system, PA700 vs. CON” value (Meloidogyne incognita; tomato, foliar spray 700 μM) was −55%, the “improvement of seedling emergence” value [1] was “+42%” and the “effect on bacterial growth” value [2] was “no effect on bacterial growth”. The OD600 ([2]; ten-fold diluted culture, printed 0.737 vs. 0.757) was 0.737, the “Leaf Area” value (tomato; mean ± standard deviation) was 11.83 ± 1.70 cm^2 and the Root length (tomato; mean ± standard deviation) was 7.95 ± 1.83 cm. The BBCH stage (tomato; median ± interquartile range) was 102 ± 1.0.
